Where only a bound is given, the exact number is not on record here.

For the assay, the target named is Protein Tat (Human immunodeficiency virus type 1 group M subtype B (isolate HXB2)) (UniProt P04608). Briefly: inhibitors of Tat binding to TAR RNA, dose response, counter-screen for Vif-APOBEC3G degradation inhibitor project, biochemical, fluorescence polarization, FAM-labeled TAR RNA (AID 1117361). For orientation: A counterscreen serves to expose hits that act by an unwanted route or on another target.
Protein Tat (Human immunodeficiency virus type 1 group M subtype B (isolate HXB2)), sequence (P04608 whole entry, looked up): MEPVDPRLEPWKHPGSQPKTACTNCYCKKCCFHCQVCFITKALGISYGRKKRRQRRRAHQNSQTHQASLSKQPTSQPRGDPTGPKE
For `C=CC1=C(C(=O)O)N2C(=O)C(NC(=O)Cc3ccccc3)C2SC1` (stereo not given), the IC50 – broadly, the concentration needed to halve the response being measured – was 64.2 µM. As for `O=C(Nc1ccc(Cl)cc1)Nc1ccc(N2CCC(C(F)(F)F)CC2)nc1`, the figure is 32.5 µM; as for `CCCCCC#CCC#CCC#CCC#CCCCC(=O)O`, 2.38 µM. With `CCC(=Nc1ccc(N)cc1)C1=C(O)C(C(=O)OC)C(C)(C)CC1=O` (stereo not given) the figure was 5.48 µM; with `NS(=O)(=O)c1ccc2c(c1)C1C=CCC1C(C1CC=CCC1)N2` (stereo not given), 9.98 µM; with `O=C1CC(c2ccco2)CC(O)=C1C=Nc1cc(Cl)cc(Cl)c1` (stereo not given), 9.58 µM.

As to `CC(C(=O)O)N1C(=O)/C(=C/C=C/c2ccco2)SC1=S` (stereo not given), the IC50 was 1.54 µM. For the compound `Cc1ccc(NC(=O)CN2C(=O)N/C(=C/c3ccco3)C2=O)cc1`, the IC50 is 36 µM. As for `O=c1[nH]c(=S)[nH]c2c1C(c1ccc(Br)cc1)c1c([nH]c(=S)[nH]c1=O)O2`, the figure is 2.72 µM; as for `Cc1c(N=C2C=C(Br)C(=O)C(Br)=C2)c(=O)n(-c2ccccc2)n1C`, 11 µM. With `CC1(C)Cc2nc3sc(C(=O)O)c(N)c3cc2CS1` the figure was 28.3 µM. As to `CCc1ccc(NC(=O)N(CCN2CCOCC2)Cc2ccc3c(c2)CCCN3CC)cc1`, the IC50 was 74.5 µM.

In the case of `O=C(CC1C(=O)NCCN1Cc1ccc(F)cc1)NCCN1CCCc2ccccc21` (stereo not given), the IC50 is 22.1 µM. As for `O=C1S/C(=C\C=C\c2ccco2)C(=O)N1c1ccc(O)cc1`, the IC50 is 2 µM. With `CC(=O)Nc1cccc(Oc2ncnc3scc(-c4ccccc4)c23)c1` the figure was 31 µM.

Turning to `O=C1CC(Nc2ccc(N3CCOCC3)cc2)C(=O)N1c1ccccc1F` (stereo not given), the IC50 was 12.9 µM. `O=C1c2ccccc2C(=O)N1/N=C/c1ccc(O)c(O)c1O`: the IC50 is 14.7 µM.

As for `O=C(Nc1cc(Cl)cc(Cl)c1)c1coc(=O)c(Br)c1`, the IC50 was 23.5 µM.

Turning to `CCCOc1ccc(N)cc1N`, the IC50 is 59.5 µM. For the compound `CC1CCCN(Cc2c(O)ccc3c2O/C(=C\c2ccco2)C3=O)C1` (stereo not given), the IC50 was 5.6 µM. As for `COc1ccc2[nH]c3c4c(ccc3c2c1)C(=O)C=CC4=O`, the figure is 24.7 µM. With `COc1cccc(N2C(=O)NC(=O)/C(=C/c3ccc([N+](=O)[O-])s3)C2=O)c1` the figure was 34.3 µM.

On to `COc1ccc2c(c1)n([O-])c1c([n+]2=O)CCC1`, for which the IC50 was 52.1 µM.

With `O=C1CC(c2ccco2)CC(O)=C1C=Nc1cc(Cl)ccc1O` (stereo not given), the IC50 is 20.5 µM. As for `CCCCC1=CC2=CC(=O)C(C)(OC(=O)c3cnc4ccccc4n3)C(=O)C2=CO1` (stereo not given), the figure is 7.3 µM; as for `C=C(C)C(=O)Nc1cccc(C2=NOC3(C2)C[C@@H](C(N)=O)N(C(=O)c2cc([N+](=O)[O-])cc([N+](=O)[O-])c2)C3)c1` (stereo not given in full), 52.9 µM; as for `O=C1/C(=C\c2ccco2)SC(=S)N1c1ccccc1`, 9.64 µM. With `O=C(O)C1Nc2c(O)cccc2C2C=CCC12` (stereo not given) the figure was 0.703 µM; with `O=C1C(Cl)=C(N2CCOCC2)C(=O)N1c1ccccc1`, 16.6 µM.

As to `Cc1n[nH]c(=S)n(NC(=O)/C=C/C(=O)Nn2c(=S)[nH]nc(C)c2=O)c1=O`, the IC50 is 18.2 µM. As for `Cc1ccc2c(c1C)NC(C(=O)O)C1CC=CC21` (stereo not given), the figure is 34.7 µM; as for `NC(=O)c1c(NC(=O)c2ccc(S(=O)(=O)N3CCOCC3)cc2)sc2c1CCCCC2`, 58.3 µM; as for `CN(CCc1ccccc1)C(=O)c1ccc(NC(=O)Cc2ccc(NC(=O)C3CCN(C(=O)CCc4ccccc4)CC3)cc2)cc1`, 44.3 µM. With `Cn1cccc1/C=C1/C(=O)NC(=O)N(Cc2ccccc2)C1=O` the figure was 67 µM; with `Cc1cc2c(c(=O)o1)C(c1ccc([N+](=O)[O-])o1)C(C#N)=C(N)O2` (stereo not given), 9.96 µM. As for `C=CCN=c1scc(-c2ccco2)n1/N=C/c1ccc(O)c(O)c1O`, the figure is 35.4 µM; as for `O=C1/C(=C\c2ccco2)SC(=S)N1Cc1ccccc1`, 17.5 µM. In the case of `O=C1CC(=O)N(Cc2ccco2)C(=S)N1`, the IC50 is 1.56 µM. With `Cc1cc(-c2n[nH]c(=S)n2/N=C/C=C/c2ccco2)n[nH]1` the figure was 18.6 µM. Take `CCOc1cccc(=O)c2c(C)n(-c3ccc(C(=O)O)cc3)c(C)c12`: the IC50 was 3.3 µM. `CCN(CC)c1ccc(/C=N/n2c(C)cc(C)cc2=O)cc1`: the IC50 was 5.27 µM. In the case of `COc1ccc2ccccc2c1C1CC(=O)N2CN(Cc3ccco3)CSC2=C1C#N` (stereo not given), the half-inhibitory concentration (IC50) was 67.7 µM. With `Oc1cccc(C=NCc2ccccc2)c1O` the figure was 6.47 µM. With `CN(C(=S)Nc1cccnc1)c1ccc(O)cc1` the figure was 27 µM. As for `COc1cc(CC(=O)OCC(=O)Nc2cccc([N+](=O)[O-])c2)cc(OC)c1OC`, the figure is 26.6 µM. Take `COc1ccc(N=C2NC(=O)/C(=C\C=C\c3ccco3)S2)cc1`: the IC50 is 6.32 µM. As for `O=C(CCN1C(=O)/C(=C/c2cccs2)SC1=S)NC1=NCCS1`, the figure is 46 µM; as for `CSc1nnc(-c2ccco2)c(-c2ccco2)n1`, 6.07 µM; as for `CCC(=O)N1N=C(c2ccc(NS(C)(=O)=O)cc2)CC1c1ccc(C)cc1` (stereo not given), 88.8 µM. As for `COc1ccc2nc3ccccc3nc2c1N`, the figure is 81.6 µM. For `CN1CCC(N(C)C(=O)COc2ccccc2-c2ccccc2)CC1`, the IC50 is 63.7 µM.

In the case of `Nc1ccc(N(CCO)CCO)cc1`, the IC50 is 9.62 µM. With `O=c1oc(/C=C/c2ccco2)nc2sc3c(c12)CCC3` the figure was 11.9 µM; with `CC1=CC(=Nc2c(C)n(C)n(-c3ccccc3)c2=O)C=CC1=O`, 14.5 µM; with `CNc1ccc(Br)cc(C(=O)/C=C/c2ccc(Cl)cc2Cl)c1=O`, 9.56 µM.

Regarding `Cc1cc(O)c(-c2cc(O)c(C)cc2O)cc1O`, the half-maximal inhibitory concentration (IC50) is 89.7 µM.

For the compound `COc1ccc(-c2cc(C(=O)N/N=C/c3ccc(OC)c(COCC(F)(F)C(F)F)c3)c3ccccc3n2)c(OC)c1`, the IC50 was 99.4 µM.

On to `Fc1ccccc1/C=C1\CCCC2=C1Nc1ncnn1C2c1ccccc1F` (stereo not given), for which the IC50 is 23.7 µM. As for `CC1=CN2C(=N)/C(=C/c3ccc([N+](=O)[O-])o3)C(=O)N=C2S1`, the figure is 12.2 µM; as for `O=[n+]1c2c(n([O-])c3cc(Cl)ccc31)CCCC2`, 42.9 µM; as for `O=C1NC(=O)C(=Cc2ccc(SC3CCCCC3)o2)C(=O)N1`, 30.9 µM. With `CCOc1cccc(=O)c2c(C)n(CC(=O)c3ccccc3)c(C)c12` the figure was 18.6 µM; with `CN(C)C(=O)c1nc2ccc(Cl)cn2c1CN1CCCC(OCc2ccccc2)C1` (stereo not given), 44.6 µM; with `CCOC(=O)C1=C(C)N=C2SC(C(=O)OC)=CC(=O)N2C1c1cc(OC)c(OC)c(OC)c1` (stereo not given), 31.4 µM. With `COc1cccc(C2C(C#N)=C(N)OC3=C2C(=O)CC(c2ccco2)C3)c1OCc1ccc(F)cc1` (stereo not given) the figure was 12.2 µM. As to `Cc1ccc(S(=O)(=O)Cn2nnnc2C(CC(C)C)N2CCN(C)CC2)cc1` (stereo not given), the IC50 was 22.6 µM. With `COC(=O)C1=COC(C)C2CN3CCc4c([nH]c5ccccc45)C3CC12` (stereo not given) the figure was 7.63 µM. With `CCN(CC(=O)Nc1c(C(=O)OC)[nH]c2ccccc12)c1ccc2c(c1)OCO2` the figure was 14.3 µM; with `CC1(C)CCCN(C(=O)c2coc(=O)c(Br)c2)C1`, 7.77 µM. Consider `O=C1NC(c2ccc(Br)cc2)=N/C1=C/c1ccco1`, for which the IC50 was 6.78 µM. With `O=C(N/N=C/C(Br)=C/c1ccccc1)c1cc(-c2ccco2)[nH]n1` the figure was 8.53 µM. With `CC1S/C(=N/N=C/c2ccco2)NC1=O` (stereo not given) the figure was 70.3 µM; with `O=C(O)c1c2c(nc3ccc(Cl)cc13)CCC2`, 13.2 µM; with `O=C(O)c1ccc(-n2cccc2/C=C2/NC(=O)N(c3cccc(Cl)c3)C2=O)cc1`, 7.85 µM. With `Cn1cnnc1SCC(=O)Nc1ncc([N+](=O)[O-])s1` the figure was 58.2 µM; with `O=C(Nc1ccccc1)c1ccc2nc(-c3ccco3)c(-c3ccco3)nc2c1`, 7.63 µM; with `CC(CNc1ccccc1O)C(=O)O` (stereo not given), 32.7 µM. Consider `CCC(=O)NC1=C(Cl)C(=O)C(NC(=O)CC)=C(Cl)C1=O`, for which the IC50 was 79.8 µM. With `Cc1ccc(N/N=C/c2c(C)c(C#N)c(=O)n(C)c2O)cc1C` the figure was 11.9 µM; with `COc1ccc(/C=N/NC(=O)c2cc(O)c(O)c(O)c2)cc1Cn1cc([N+](=O)[O-])cn1`, 46.7 µM; with `CCCCn1c(SCC(=O)NCc2ccco2)nc2ccc(N3CCOCC3)cc2c1=O`, 22.8 µM. With `Cc1c2ccccc2nc2c(F)c(N(C)C)c(F)c(F)c12` the figure was 6.51 µM; with `Cn1nc(-c2ccc(Cl)cc2)c2cc(C(=O)N3CCN(c4ccccc4)CC3)sc21`, 12.6 µM. As for `N#C/C(=C/c1ccc(N2CCCCCC2)o1)c1cccc(F)c1`, the figure is 98.4 µM. Consider `O=C(COC(=O)/C=C/c1ccco1)Nc1ncc(C(F)(F)F)cc1Cl`, for which the IC50 is 20.2 µM. As for `Cc1ccc([C@@H]2C3COCC=C3C(C#N)=C(N)C2(C#N)C#N)o1` (stereo not given in full), the IC50 is 4.05 µM. With `Cc1cc(C)c(S(=O)(=O)N2CCCCC2)c(C)c1N(C)S(=O)(=O)c1ccc(Cl)cc1` the figure was 29 µM; with `O=C1NC(=Nc2ccc(O)cc2)S/C1=C\C=C\c1ccco1`, 18.3 µM; with `O=C(Nc1ccc(Br)cn1)c1coc(=O)c(Br)c1`, 79.5 µM. `CC(=O)Nc1ccc(S(=O)(=O)Nc2nc3ccccc3nc2Nc2ccc(N)cc2)cc1`: the IC50 was 43.3 µM. As for `O=C(NCC1CCCO1)c1cc(-c2ccco2)nc2ccccc12` (stereo not given), the figure is 49.5 µM. With `COC(=O)c1ccccc1-c1c2ccc(=N)cc-2oc2cc(N)ccc12` the figure was under 0.19 µM; with `COC/C=C/C1=CC2=CC(=O)C(C)(OC(=O)C3CCCC3)C(=O)C2=CO1` (stereo not given), 10.5 µM; with `Cc1cc2c(N)cccc2nn1`, 2.08 µM. As for `N#C/C(=C/c1ccc(Br)o1)C(N)=S`, the figure is 16 µM; as for `CC(=O)Nc1ccc(S(=O)(=O)NCCSCc2ccco2)cc1`, 65.8 µM; as for `Cc1ccccc1NC(=O)CSc1nnc(-c2ccco2)c(-c2ccco2)n1`, 2.73 µM. For the compound `O=C(O)C1=NN(c2cc(Cl)c(S(=O)(=O)O)cc2Cl)C(=O)C1`, the IC50 is 30.9 µM. For `Cc1ccc(C(CC(=O)NCc2ccco2)c2ccccc2)c(O)c1` (stereo not given), the IC50 was 30 µM. As for `COc1ccc(C2=CC(c3ccc(Cl)cc3)n3cnnc3N2)cc1OC` (stereo not given), the figure is 6.19 µM.
